“Also recorded” adds a separate entry of the source. Marks after values point to notes of the source that are not given here.
What was measured:
Assay type in all cases: in vivo, human
TNFR 2 = TNFR 2 in nasal mucus of patients with hyposmia treated with theophylline; conditions: for TNFR2: nasal mucus, patients with hyposmia (18)
Description: (§1) Table 35 illustrates detection and measurement of TNFα, and soluble TNF receptors 1 and 2, moieties in the nasal mucus. TNFα, and soluble TNF receptors 1 and 2 increase in systems undergoing excessive apoptosis.
With a dose dependent increase of theophylline treatment levels of TNFR 2 in nasal mucus decreased consistent with a dose dependent increase in smell function. Levels of TNFR 2 in patients with Type I and Type II hyposmia decreased almost 50% on 600 mg theophylline consistent with their greatest return of smell function. At this highest level of theophylline levels of TNFR 2 were decreased in relationship to the decrease in smell function-TNFR 2, Type I>Type II>Type III; smell loss, Type I>Type II>Type III.

TNFα = TNFα in nasal mucus of patients with hyposmia treated with theophylline; conditions: for TNF∝: nasal mucus, patients with hyposmia (24)
Text: as §1
(§2) These studies were extended to reveal levels of TNFα in nasal mucus of patients with graded loss of smell following treatment with theophylline (Table 36). Smell loss was graded such that loss was greatest in Type I hyposmia, less in Type II and still less in Type III (I>II>III). […] Following treatment which was effective in restoring smell function toward normal, levels of TNFα decreased in each patient group consistent with each increased dose of theophylline which generated a dose dependent increase in smell function—as theophylline dose increased, smell function increased and TNFα levels decreased. In Type I hyposmia TNFα decreased 40% after treatment with 400 mg theophylline and 57% after treatment 600 mg. In Type II hyposmia TNFα decreased 11% after treatment with 600 mg theophylline.

TNFR 1 = TNFR 1 in nasal mucus of patients with hyposmia treated with theophylline; conditions: for TNFR1: nasal mucus, patients with hyposmia (19)
Text: as §1
With increased smell loss pre treatment TNFR 1 levels were increased in nasal mucus in patients with Type I hyposmia (whose smell loss was increased over that of patients with Type II hyposmia). […] The greater was the smell loss, the higher was the level of TNFR 1.

patients with hyposmia = assay: Smell function (olfactory acuity) in patients with hyposmia treated with theophylline
Text: as §2

Nitric Oxide (NO) = assay: NO in nasal mucus of patients with hyposmia before and after theophylline treatment; conditions: for NO: nasal mucus, patients (12)
Text: Table 33 in the examples illustrates NO in nasal mucus in patients treated with theophylline in various doses before and after drug treatment. NO levels in nasal mucus changed following the treatment of patients with smell loss. […] Its continual measurement during treatment of the disorders helps in monitoring efficacy of therapy. The detection of NO in nasal mucus provides a non invasive method of diagnosing various diseases related to human physiology and pathology. The methods of the present invention include treatment of diseases by modulating the concentrations of NO by use of drugs or agents. The method of treatment is preferably by nasal administration.
Table 33 illustrates NO levels in nasal mucus in patients treated with Theophylline in various doses before and after drug treatment. NO levels in nasal mucus changed following the treatment of patients with smell loss. […] Its continual measurement during treatment of these disorders helps in monitoring efficacy of therapy. The detection of NO in nasal mucus provides a non invasive method of diagnosing various diseases related to human physiology and pathology.

TRAIL = TRAIL in nasal mucus of patients with hyposmia before and after treatment with theophylline; conditions: for TRAIL: nasal mucus, patients with hyposmia (5)
[1] = hyposmia Type I (7), theophylline 200 mg orally daily
[2] = hyposmia Type I (7), theophylline 600 mg orally daily
[3] = hyposmia Type II (10), theophylline 200 mg orally daily
[4] = hyposmia Type II (10), theophylline 400 mg orally daily
[5] = hyposmia Type II (10), theophylline 600 mg orally daily
[6] = hyposmia Type III (2), theophylline 600 mg orally daily
[7] = patients with hyposmia, stepwise increase in theophylline dose

In the case of `Cn1c(=O)c2[nH]cnc2n(C)c1=O` [theophylline], the “TNFR 2 decrease in nasal mucus” value (TNFR 2; Type I and Type II hyposmia, 600 mg theophylline) is reported as roughly 50%, the “TNFR2 in nasal mucus” value (TNFR 2; [1]) is reported as 3,100 ± 1,184 and the “TNFR2 in nasal mucus” value (TNFR 2; [2]) is reported as 1,491 ± 1,102. The “TNFR2 in nasal mucus” value (TNFR 2; [3]) was 1,378 ± 480^, the “TNFR2 in nasal mucus” value (TNFR 2; [4]) was 1,014 ± 272 and the “TNFR2 in nasal mucus” value (TNFR 2; [5]) was 553 ± 158. The “TNFR2 in nasal mucus” value (TNFR 2; [6]) was 436 ± 443, the TNFR2 (TNFR 2; Theophylline treatment 200) was 1,952 ± 339 and the TNFR2 (TNFR 2; Theophylline treatment 400) was 949 ± 180^c. The TNFR2 (TNFR 2; Theophylline treatment 600) was 916 ± 344, the “TNFR 2 in nasal mucus, change after treatment” value (TNFR 2; [7]) was “significant dose-response decrease; also recorded: decreased” and the “TNFα decrease in nasal mucus” value (TNFα; Type I hyposmia, 400 mg theophylline) was 40%. For the same molecule, the “TNFα decrease in nasal mucus” value (TNFα; Type I hyposmia, 600 mg theophylline) was 57%, the “TNFα decrease in nasal mucus” value (TNFα; Type II hyposmia, 600 mg theophylline) was 11% and the “TNF∝ in nasal mucus” value (TNFα; hyposmia Type I (8), theophylline 400 mg orally daily) was 15.6. The “TNF∝ in nasal mucus” value (TNFα; hyposmia Type I (8), theophylline 600 mg orally daily) was 11.2 ± 4.4^, the “TNF∝ in nasal mucus” value (TNFα; hyposmia Type II (13), theophylline 200 mg orally daily) was 14.9 ± 2.5 and the “TNF∝ in nasal mucus” value (TNFα; hyposmia Type II (13), theophylline 400 mg orally daily) was 11.5 ± 3.2. For the same molecule, the “TNF∝ in nasal mucus” value (TNFα; hyposmia Type II (13), theophylline 600 mg orally daily) was 4.3 ± 0.8^a, the “TNF∝ in nasal mucus” value (TNFα; hyposmia Type III (3), theophylline 600 mg orally daily) was 1.2 ± 0.7^bc and the “TNF∝” value (TNFα; Theophylline treatment 200) was 20.0 ± 2.8 µg/mL. The TNF∝ (TNFα; Theophylline treatment 400) was 12.1 ± 2.1 µg/mL, the TNF∝ (TNFα; Theophylline treatment 600) was 7.4 ± 1.8 µg/mL and the “TNFα in nasal mucus, change after treatment” value (TNFα; [7]) was “significant dose-response decrease”. The “TNFR 1 in nasal mucus” value (TNFR 1; [1]) was 6,521 ± 1,304^c, the “TNFR 1 in nasal mucus” value (TNFR 1; hyposmia Type I (7), theophylline 400 mg orally daily) was 1,498 and the “TNFR 1 in nasal mucus” value (TNFR 1; [2]) was 1,832 ± 704^a. For the same molecule, the “TNFR 1 in nasal mucus” value (TNFR 1; [3]) was 1,462 ± 371 ^, the “TNFR 1 in nasal mucus” value (TNFR 1; [4]) was 1,087 ± 335 and the “TNFR 1 in nasal mucus” value (TNFR 1; [5]) was 862 ± 335. The “TNFR 1 in nasal mucus” value (TNFR 1; [6]) was 585 ± 335, the TNFR1 (TNFR 1; Theophylline treatment 200) was 3,148 ± 663 and the TNFR1 (TNFR 1; Theophylline treatment 400) was 1,146 ± 220^b. The TNFR1 (TNFR 1; Theophylline treatment 600) was 1,220 ± 286^ab, the “TNFR 1 in nasal mucus, change after treatment” value (TNFR 1; [7]) was “significant dose-response decrease; also recorded: TNFR 1 levels decreased in Type I” and the smell function (patients with hyposmia; 600 mg theophylline) was “restored smell function to or toward normal”. For the same molecule, the smell function (patients with hyposmia; theophylline at various (graded) doses) was “returned smell function to normal in a dose-dependent manner; also recorded: graded increases in smell function; also recorded: stepwise improvement in olfactory acuity”, the NO (Nitric Oxide (NO); Theophylline 200 mg) was 0.25 ± 0.01 µg/mL and the NO (Nitric Oxide (NO); Theophylline 400 mg) was 0.40 ± 0.06 µg/mL. For the same molecule, the NO (Nitric Oxide (NO); Theophylline 600 mg) was 0.59 ± 0.16 µg/mL, the “NO in nasal mucus, change after treatment” value (Nitric Oxide (NO); patients with hyposmia, theophylline in graded doses) was “increases in nasal mucus NO” and the TRAIL (TRAIL; theophylline 200 mg) was 855 µg/mL. The TRAIL (TRAIL; theophylline 400 mg) was 791 µg/mL, the TRAIL (TRAIL; theophylline 600 mg) was 247 µg/mL and the “TRAIL in nasal mucus, change after treatment” value (TRAIL; patients with hyposmia, before vs after theophylline at various doses) was “dose-dependent decrease”.
